Results: patent US20170122958A1, “Enzymes Functional Probes” (University of Dundee, priority 2013, published 2017)

Legend:
Type in all cases: binding
Brd4(1) = target: T1, Brd4(1) (Homo sapiens, UniProt O60885); assay: DSF thermal shift; conditions: wild type
T1 construct: Plasmids of the eight single BET bromodomain constructs Brd2(1), Brd2(2), Brd3(1), Brd3(2), Brd4(1), Brd4(2), Brdt(1) and Brdt(2); His6 (N); made in house; host or cells: E. coli BL21(DE3)

Brd4(2) = target: T2, Brd4(2) (Homo sapiens, UniProt O60885); assay: DSF thermal shift; conditions: wild type
T2 construct: Plasmids of the eight single BET bromodomain constructs Brd2(1), Brd2(2), Brd3(1), Brd3(2), Brd4(1), Brd4(2), Brdt(1) and Brdt(2); His6 (N); made in house; host or cells: E. coli BL21(DE3)

brd4(1)L094A = target: T3, brd4(1)L094A (Homo sapiens, UniProt O60885, L94A); assay: DSF thermal shift; conditions: mutant
T3 construct: Plasmids of the eight single BET bromodomain constructs Brd2(1), Brd2(2), Brd3(1), Brd3(2), Brd4(1), Brd4(2), Brdt(1) and Brdt(2); His6 (N); made in house; host or cells: E. coli BL21(DE3)

brd4(2)L387A = target: T4, brd4(2)L387A (Homo sapiens, UniProt O60885, L387A); assay: DSF thermal shift; conditions: mutant
T4 construct: Plasmids of the eight single BET bromodomain constructs Brd2(1), Brd2(2), Brd3(1), Brd3(2), Brd4(1), Brd4(2), Brdt(1) and Brdt(2); His6 (N); made in house; host or cells: E. coli BL21(DE3)

[1] = target: T5, Brd2 tandem with mutations on both bromodomains (LA-LA) (Homo sapiens, UniProt P25440, L110A/L383A); assay: ITC of compound into Brd2 tandem construct
T5 construct: containing the first and the second bromodomain, as well as the natural linker between them; His6; SUMO (cleaved yes); made in house; host or cells: E. coli BL21(DE3)
Description: (§1) Tandem constructs of Brd2 with and without leucine to alanine mutations were expressed and purified for this last part of the project. […] Nevertheless, ITC experiments were performed with four of these constructs, a tandem with no mutation (WT-WT), a tandem with the mutation in the first bromodomain (LA-WT), a tandem with the mutation on the second bromodomain (WT-LA) and a tandem with mutations on both bromodomains (LA-LA). Normal titrations (compound into syringe, protein into sample cell) with compound 11 were performed for this assay. For the WT-WT construct, 300 μM of the compound was injected into a solution of the tandem at 10 μM. For the LA-WT and WT-LA constructs, the compound was injected at 150 μM into 15 μM of the protein and for the LA-LA construct, 150 μM compound was injected into a solution of 10 μM of this tandem construct. The ITC assays were run at 30° C. at 1% DMSO.
(§2) ITC experiments were carried out on a ITC200 instrument from MicroCal™ Experiments were conducted at 3 different temperatures 15° C., 25° C. and 30° C., while stirring at 1000 rpm. Buffers of proteins, peptide and compounds were matched to 20 mM HEPES pH 7.5 at 25° C. and 100 mM NaCl. Frozen protein was buffer exchanged as described for the DSF experiments. Each titration comprised 1 initial injection of 0.4 μl lasting 0.8 s, followed by 19 injections of 2 μl lasting 4 s each at 2 min intervals. The initial injection was discarded during data analysis. Standard and reverse titrations were conducted depending on the binding partners.
(§3) All the data was fitted to a single binding site model using the Microcal LLC ITC200 Origin software provided by the manufacturer to yield enthalpies of binding (ΔH) and binding constants (Kas). Further thermodynamic parameters were calculated from these values (changes in entropy ΔS, changes in free energy AG and dissociation constants (Kds)).

[2] = target: T6, Brd2 tandem with no mutation (WT-WT) (Homo sapiens, UniProt P25440); assay: ITC of compound into Brd2 tandem construct
T6 construct: containing the first and the second bromodomain, as well as the natural linker between them; His6; SUMO (cleaved yes); made in house; host or cells: E. coli BL21(DE3)
Description: as §1, §2, §3

[3] = target: T7, Brd2 tandem with the mutation in the first bromodomain (LA-WT) (Homo sapiens, UniProt P25440, L110A); assay: ITC of compound into Brd2 tandem construct
T7 construct: containing the first and the second bromodomain, as well as the natural linker between them; His6; SUMO (cleaved yes); made in house; host or cells: E. coli BL21(DE3)
Description: as §1, §2, §3

T5 sequence (P25440 71-455 L110A/L383A limits assumed): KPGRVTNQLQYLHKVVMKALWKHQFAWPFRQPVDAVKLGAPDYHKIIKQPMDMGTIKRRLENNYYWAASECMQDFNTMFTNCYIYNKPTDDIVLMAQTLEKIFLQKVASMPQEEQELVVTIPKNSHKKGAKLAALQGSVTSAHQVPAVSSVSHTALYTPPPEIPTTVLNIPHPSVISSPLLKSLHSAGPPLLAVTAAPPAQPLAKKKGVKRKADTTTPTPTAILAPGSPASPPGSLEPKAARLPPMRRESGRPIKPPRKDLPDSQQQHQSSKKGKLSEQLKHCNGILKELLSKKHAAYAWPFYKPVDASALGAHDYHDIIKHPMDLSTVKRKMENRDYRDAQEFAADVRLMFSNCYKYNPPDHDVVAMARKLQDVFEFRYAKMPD
T7 sequence (P25440 71-455 L110A limits assumed): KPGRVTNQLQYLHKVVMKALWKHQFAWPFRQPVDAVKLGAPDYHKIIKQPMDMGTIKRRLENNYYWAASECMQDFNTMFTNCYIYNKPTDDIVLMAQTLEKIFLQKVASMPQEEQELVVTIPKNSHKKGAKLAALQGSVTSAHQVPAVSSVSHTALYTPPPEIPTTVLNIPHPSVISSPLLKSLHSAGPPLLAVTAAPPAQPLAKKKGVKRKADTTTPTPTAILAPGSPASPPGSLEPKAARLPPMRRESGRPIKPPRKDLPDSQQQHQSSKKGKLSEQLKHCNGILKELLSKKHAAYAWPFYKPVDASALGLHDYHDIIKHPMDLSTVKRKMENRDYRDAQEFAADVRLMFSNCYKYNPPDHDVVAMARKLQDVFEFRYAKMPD
T6 sequence (P25440 71-455 limits assumed, change not shown): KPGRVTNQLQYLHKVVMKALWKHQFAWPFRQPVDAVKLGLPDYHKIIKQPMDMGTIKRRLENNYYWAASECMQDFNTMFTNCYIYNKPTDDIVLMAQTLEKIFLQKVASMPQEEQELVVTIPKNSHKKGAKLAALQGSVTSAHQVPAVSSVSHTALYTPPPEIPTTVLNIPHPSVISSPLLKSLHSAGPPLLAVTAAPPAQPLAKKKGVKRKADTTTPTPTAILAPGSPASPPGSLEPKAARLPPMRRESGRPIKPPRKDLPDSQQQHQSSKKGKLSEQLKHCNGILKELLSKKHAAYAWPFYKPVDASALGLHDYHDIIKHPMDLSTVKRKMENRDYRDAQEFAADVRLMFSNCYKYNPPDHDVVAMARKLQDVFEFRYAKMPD

CC[C@@H](C(=O)OC)[C@@H]1N=C(c2ccc(Cl)cc2)c2cc(OC)ccc2-n2c(C)nnc21 (racemic) [Compound 11, (+−)-methyl (R)-2-((S)-6-(4-chlorophenyl)-8-methoxy-1-methyl-4H-benzo[f][1,2,4]triazolo[4,3-a][1,4]diazepin-4-yl)butanoate]
ΔTm Brd4(1) (Brd4(1)): 1.5 ± 0.4 K | ΔTm Brd4(2) (Brd4(2)): 1.5 ± 0.0 K | ΔTm Brd4(1)* (L094A) (brd4(1)L094A): 10.0 ± 0.2 K | ΔTm Brd4(2)* (L387A) (brd4(2)L387A): 7.0 ± 0.1 K | Kd [1]: ~56 nM | Kd [2]: ~15800 nM | Kd [3]: ~160 nM
